One experiment concerns CCRF S-180. Description: Antitumor activity against mouse S180 cells implanted in mouse assessed as inhibition of tumor growth at 40 mg/kg. It is filed as functional.
Another experiment relates to HeLa. The experiment in a line: Antitumor activity against human HeLa cells assessed as inhibition of cell growth by MTT assay. Format: functional, cell-based. A general note: Tetrazolium dyes change colour on reduction, which living cells bring about.
For another experiment, the system named is SiHa. The experiment in a line: Antitumor activity against human SiHa cells assessed as inhibition of cell growth by MTT assay. Format: functional, cell-based.
For a further experiment, the system named is BeWo. The experiment in a line: Antitumor activity against human Bewo cells assessed as inhibition of cell growth by MTT assay. Format: functional, cell-based.
The nature of experiment [1]: Antitumor activity against human HL60 cells assessed as inhibition of cell growth by MTT assay. It is filed as functional, cell-based. Conditions: HL-60.
Experiment [2] can be described thus: Antitumor activity against human SGC7901 cells assessed as inhibition of cell growth by MTT assay. It is filed as functional, cell-based. Conditions: SGC-7901.
A further experiment deals with HepG2. Description: Antitumor activity against human HepG2 cells assessed as inhibition of cell growth by MTT assay. Format: functional, cell-based.
The nature of experiment [3]: Antitumor activity against human Bel7404 cells assessed as inhibition of cell growth by MTT assay. It is filed as functional, cell-based. As to conditions: BEL-7404.
In another experiment the test system is A549. Description: Antitumor activity against human A549 cells assessed as inhibition of cell growth by MTT assay. It is filed as functional, cell-based.
Experiment [4] is described as follows: Antitumor activity against human […] cells assessed as inhibition of cell growth by MTT assay. Format: functional, cell-based.
The subject of a further experiment is MCF7. Description: Antitumor activity against human MCF7 cells assessed as inhibition of cell growth by MTT assay. It is filed as functional, cell-based.
Experiment [5] deals with HL-60. Description: Induction of cell morphological changes in human HL60 cells at 2.5 to 10 ug/mL. It is filed as functional, cell-based.
Experiment [6] has as its system HL-60. Description: Induction of apoptosis in human HL60 cells at 0.5 to 2 ug/mL by flow cytometry. Format: functional, cell-based.

Activity calls are given as the source filed them. The calls are words filed in the database; no cut-off is given here.

Consider `O=P1(N(CCCl)CCCl)NCCCO1` (stereo not given) [CYCLOPHOSPHAMIDE ANHYDROUS], for which the inhibition in vivo at 40 mg/kg with CCRF S-180 is 54.8%.
Regarding `O=C(/C=C/c1cc(O)c(O)c([N+](=O)[O-])c1)OC12CC3CC(CC(C3)C1)C2`, the IC50 turned out to be 1.28 µM with HeLa; 6.74 µM in the experiment on SiHa; 5.63 µM in the experiment with BeWo; 4.07 µM in [1]; 4.6 µM in [2]; 3.84 µM in the experiment on HepG2. The IC50 in experiment [3] was determined as 21.4 µM; in the experiment with A549, 4.41 µM; in experiment [4], 8.22 µM; in the experiment on MCF7 it was 4.09 µM. The result in the experiment with HL-60 [5] and in the experiment with HL-60 [6] was Active. Moreover, the inhibition in vivo at 40 mg/kg in the experiment with CCRF S-180 was determined as 36.7%.
With `O=C(/C=C/c1ccc(O)c(O)c1)OC12CC3CC(CC(C3)C1)C2`, the IC50 is more than 100 µM in the experiment with HeLa; more than 100 µM in the experiment with SiHa; more than 100 µM with BeWo; 8.15 µM in [1]; 29.7 µM in [2]; 30 µM with HepG2.

By inhibition in vivo is commonly meant the share of the control response that was lost under treatment. By IC50 is commonly meant the concentration that inhibits the measured activity by half.
